One data set concerns Mus musculus. As to the kind of experiment: Toxicity in albino Swiss (CD-1) mouse assessed as effect on spontaneous locomotor activity by measuring number of crossings at 10 mg/kg, ip administered 30 mins prior to test measured for last 4 mins of 6 mins observation (reference value: 191.5 to 225.4). The data set is classed as organism-based. As to conditions: in vivo.
Data set [1] in a line: Antidepressant-like activity in albino Swiss (CD-1) mouse assessed as immobility time at 2.5 mg/kg, ip administered 30 mins prior to test measured for last 4 mins of 6 mins observation by forced swim test (reference value: 178.3 +/- 12.3 sec). In kind it is functional, organism-based.
In data set [2] the test system is Rattus norvegicus. Description: Hypotensive activity in normotensive anesthetized Wistar rat assessed as diastolic blood pressure at 0.1 mg/kg, iv measured 10 mins post dose (reference value: 81.6 to 115.2 mmHg). The data set is classed as functional.
The test system of data set [3] is Rattus norvegicus. As to the kind of experiment: Hypotensive activity in normotensive anesthetized Wistar rat assessed as systolic blood pressure at 0.1 mg/kg, iv measured 10 mins post dose (reference value: 107.4 to 148.3 mmHg). In kind it is functional.
For data set [4], the system named is Rattus norvegicus. Description: Hypotensive activity in normotensive anesthetized Wistar rat assessed as diastolic blood pressure at 0.1 mg/kg, iv measured 30 mins post dose (reference value: 81.6 to 115.2 mmHg). In kind it is functional.
The subject of data set [5] is Rattus norvegicus. As to the kind of experiment: Hypotensive activity in normotensive anesthetized Wistar rat assessed as systolic blood pressure at 0.1 mg/kg, iv measured 20 mins post dose (reference value: 107.4 to 148.3 mmHg). In kind it is functional.
In data set [6] the test system is Rattus norvegicus. As to the kind of experiment: Hypotensive activity in normotensive anesthetized Wistar rat assessed as systolic blood pressure at 0.1 mg/kg, iv measured 60 mins post dose (reference value: 107.4 to 148.3 mmHg). In kind it is functional.
For data set [7], the system named is Rattus norvegicus. As to the kind of experiment: Hypotensive activity in normotensive anesthetized Wistar rat assessed as systolic blood pressure at 0.1 mg/kg, iv measured 5 mins post dose (reference value: 107.4 to 148.3 mmHg). In kind it is functional.
Data set [8] relates to Rattus norvegicus. As to the kind of experiment: Hypotensive activity in normotensive anesthetized Wistar rat assessed as diastolic blood pressure at 0.1 mg/kg, iv measured 5 mins post dose (reference value: 81.6 to 115.2 mmHg). The data set is classed as functional.

Structures are written as SMILES.

Turning to `COc1ccccc1N1CCN(CCOCCOc2cccc(C)c2C)CC1.Cl.Cl`, the Activity in the data set with Mus musculus amounted to 190. Besides, in data set [1], the TIME worked out at 0.0447 h.

With `COc1ccccc1N1CCN(CCCCOc2c(C)cccc2C)CC1.Cl`, the Activity with Rattus norvegicus [2] is reported as 112.7 mmHg; in the data set with Rattus norvegicus [3], 138.3 mmHg; with Rattus norvegicus [4] it was 103 mmHg; in the data set with Rattus norvegicus [5], 131.7 mmHg; in the data set on Rattus norvegicus [6], 127.7 mmHg; in the data set with Rattus norvegicus [7], 142.7 mmHg. Moreover, the Activity in the data set with Rattus norvegicus [8] came to 112.7 mmHg.

These data come from ChEMBL document CHEMBL3860091, “Synthesis and activity of newly designed aroxyalkyl or aroxyethoxyethyl derivatives of piperazine on the cardiovascular and the central nervous systems” (Bioorg Med Chem Lett, 2016).
